The numbers were not newly measured in US20090246262A1, “EASILY APPLIED FIELD DRESSING FOR WOUNDS” (Valor Medical, Inc., priority 2008, published 2009), which cites them from elsewhere.

The conditions of series [1]: in vivo.
For series [2] the following is noted: upon contact with moist tissues.

As to `C=C(C#N)C(=O)OC` [Eastman 910], in series [1], the histotoxicity entry was “histotoxic”. `C=C(C#N)C(=O)OCC` [ethyl]: in series [1], the histotoxicity result was “histotoxic”.

With `C=C(C#N)C(=O)OC` [methyl homolog, methyl cyanoacrylate], in series [1], the histotoxicity result is listed as “histoxicity severely limited its clinical usefulness”. For the same compound, in series [2], the “time to polymerize (remains as a monomer)” value was 30 to 55 s.
